{
  "source": "patent US20160235727A1",
  "about": "“NOVEL PYRROLIDINE DERIVED BETA 3 ADRENERGIC RECEPTOR AGONISTS” (Merck Sharp & Dohme Corp., priority 2013, published 2016)",
  "molecular_target": "T1, human β3-AR (Homo sapiens, UniProt P13945)",
  "T1 construct": "expressed in transfected cells; host or cells: CHO (Chinese hamster ovary) cells, stably transfected",
  "T1 sequence (P13945 whole entry)": "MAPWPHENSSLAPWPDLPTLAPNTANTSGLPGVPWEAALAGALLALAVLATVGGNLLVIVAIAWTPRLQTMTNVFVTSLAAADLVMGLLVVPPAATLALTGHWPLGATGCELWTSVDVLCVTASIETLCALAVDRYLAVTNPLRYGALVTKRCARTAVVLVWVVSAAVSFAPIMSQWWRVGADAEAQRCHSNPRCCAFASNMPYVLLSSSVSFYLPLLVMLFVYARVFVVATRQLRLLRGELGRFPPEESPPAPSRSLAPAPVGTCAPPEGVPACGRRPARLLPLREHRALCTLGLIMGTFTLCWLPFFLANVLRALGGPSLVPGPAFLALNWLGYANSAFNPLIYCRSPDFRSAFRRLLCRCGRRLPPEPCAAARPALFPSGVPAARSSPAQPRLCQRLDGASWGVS",
  "experiment": "cAMP functional agonist assay (LANCE TR-FRET) in CHO cells expressing cloned human β3-AR",
  "type": "cell-based",
  "conditions": "for pEC50: CHO cells stably expressing cloned human β3-adrenoceptor, cAMP release, read-out: Human β3-AR Agonism EC50; for Fold drop in potency vs. 2-chloropyridine analog: EC50 of comparative example divided by EC50 of corresponding 2-chloropyridine compound; for Human β3-AR Agonist Activity (%): percent maximum activation relative to isoproterenol",
  "method": "The ability of compounds to activate the human β3-AR receptor was measured using a CHO cell line stably expressing the cloned human β1-, β2-, and β3-adrenoceptors (β-AR). […] To quantify the amount of cAMP released following β-AR activation, the LANCE cAMP kit (Perking Elmer), a time-resolved fluorescence resonance energy transfer immunoassay, was used. Compounds were serially diluted in DMSO and an aliquot added to either 384-well or 96-well micro titer plates in assay buffer (5 mM HEPES, 0.1% BSA in Hank's Balanced Salt Solution). […] Following 30 min incubation at room temperature, the cells were lysed by the addition of LANCE detection buffer which contained a europium-labeled cAMP tracer. Fluorescence was measured following one hour incubation at room temperature using a Perking Elmer Envision plate reader, exciting at 340 nm and measuring emission at 615 nm and 665 nm. For each assay, a cAMP standard curve was included and used to convert fluorescence readings directly to cAMP amounts. The values were then normalized to isoproterenol, a known full agonist of β-AR, which was titrated in every assay and the EC50 determined using a custom in-house data analysis package. Along with EC50, the percent maximum activation relative to isoproterenol is reported.\nThe cAMP production is measured using a homogenous time-resolved fluorescence resonance energy transfer immunoassay (LANCE™, Perkin Elmer) according to the manufacture's instructions. Chinese hamster ovary (CHO) cells, stably transfected with the cloned β-adrenergic receptor (β1, β2 or β3) are harvested after 3 days of subculturing. Harvesting of cells is done with Enzyme-free Dissociation Media (Specialty Media). Cells are then counted and resuspended in assay buffer (Hank's Balanced salt solution supplemented with 5 mM HEPES, […]) containing a phosphodiesterase inhibitor (IBMX, 0.6 mM). The reaction is initiated by mixing 6,000 cells in 6 μL with 6 μL Alexa Fluor labeled cAMP antibody (LANCE™ kit) which is then added to an assay well containing 12 μL of compound (diluted in assay buffer to 2× final concentration). The reaction proceeds for 30 minutes at RT and is terminated by the addition of 24 ul detection buffer (LANCE™ kit). The assay plate is then incubated for 1 h at RT and time-resolved fluorescence measured on a Perkin Elmer Envision reader or equivalent. The unknown cAMP level is determined by comparing fluorescence levels to a cAMP standard curve.\nThe non-selective, full agonist β-adrenergic ligand isoproterenol is used at all three receptors to determine maximal stimulation. […] Data are analyzed using Microsoft Excel and Graphpad Prism or an internally developed data analysis software package. […]",
  "note": "pEC50: −log10 of the molar value.",
  "data": [
    {"compound": "Cc1cc(CN(C)C(=O)c2ccc(C[C@@H]3CC[C@H]([C@H](O)c4ccc(F)cc4)N3)cc2)n[nH]1", "note": "[Example 4-F, 4-(((2S,5R)-5-((R)-(4-fluorophenyl)(hydroxy)methyl)pyrrolidin-2-yl)methyl)-N-methyl-N-((5-methyl-1H-pyrazol-3-yl)methyl)benzamide]", "values": [
      {"measurement": "pEC50", "result": 7.72},
      {"measurement": "Fold drop in potency vs. 2-chloropyridine analog", "result": 3.5, "unit": "fold"},
      {"measurement": "Human β3-AR Agonist Activity (%)", "result": 105, "unit": "%"}
    ]},
    {"compound": "CCc1[nH]nc(CN(C)C(=O)c2ccc(C[C@@H]3CC[C@H]([C@H](O)c4ccc(Cl)nc4)N3)cc2)c1C", "note": "[Example 12-A, 4-(((2S,5R)-5-((R)-(6-chloropyridin-3-yl)(hydroxy)methyl)pyrrolidin-2-yl)methyl)-N-((5-ethyl-4-methyl-1H-pyrazol-3-yl)methyl)-N-methylbenzamide]", "values": [
      {"measurement": "pEC50", "result": 7.89},
      {"measurement": "Human β3-AR Agonist Activity (%)", "result": 95, "unit": "%"}
    ]},
    {"compound": "CN(Cc1nc2ccsc2c(=O)[nH]1)C(=O)c1ccc(C[C@@H]2CC[C@H]([C@H](O)c3ccc(Cl)nc3)N2)cc1", "note": "[Example 44-A, 4-(((2S,5R)-5-((R)-(6-chloropyridin-3-yl)(hydroxy)methyl)pyrrolidin-2-yl)methyl)-N-methyl-N-((4-oxo-3,4-dihydrothieno[3,2-d]pyrimidin-2-yl)methyl)benzamide]", "values": [
      {"measurement": "pEC50", "result": 8.70},
      {"measurement": "Human β3-AR Agonist Activity (%)", "result": 99, "unit": "%"}
    ]},
    {"compound": "O=C(c1ccc(C[C@@H]2CC[C@H]([C@H](O)c3ccc(Cl)nc3)N2)cc1)N(CCO)Cc1cccnc1F", "note": "[Example 27-A, 4-(((2S,5R)-5-((R)-(6-chloropyridin-3-yl)(hydroxy)methyl)pyrrolidin-2-yl)methyl)-N-((2-fluoropyridin-3-yl)methyl)-N-(2-hydroxyethyl)benzamide]", "values": [
      {"measurement": "pEC50", "result": 8.30},
      {"measurement": "Human β3-AR Agonist Activity (%)", "result": 57, "unit": "%"}
    ]},
    {"compound": "CCN(Cc1cccnc1)C(=O)c1ccc(C[C@@H]2CC[C@H]([C@H](O)c3ccccc3)N2)cc1", "note": "[Example 22-B, N-ethyl-4-(((2S,5R)-5-((R)-hydroxy(phenyl)methyl)pyrrolidin-2-yl)methyl)-N-(pyridin-3-ylmethyl)benzamide]", "values": [
      {"measurement": "pEC50", "result": 8.00},
      {"measurement": "Fold drop in potency vs. 2-chloropyridine analog", "result": 2.0, "unit": "fold"},
      {"measurement": "Human β3-AR Agonist Activity (%)", "result": 103, "unit": "%"}
    ]},
    {"compound": "CN(Cc1cncc(C(=O)O)c1)C(=O)c1ccc(C[C@@H]2CC[C@H]([C@H](O)c3ccc(Cl)cc3)N2)cc1", "note": "[Example 33-G, 5-((4-(((2S,5R)-5-((R)-(4-chlorophenyl)(hydroxy)methyl)pyrrolidin-2-yl)methyl)-N-methylbenzamido)methyl)nicotinic acid]", "values": [
      {"measurement": "pEC50", "result": 7.20},
      {"measurement": "Fold drop in potency vs. 2-chloropyridine analog", "result": 1.4, "unit": "fold"},
      {"measurement": "Human β3-AR Agonist Activity (%)", "result": 102, "unit": "%"}
    ]},
    {"compound": "CN(Cc1cccnc1)C(=O)c1ccc(C[C@@H]2CC[C@H]([C@H](O)c3ccc(C4CC4)nc3)N2)cc1", "note": "[Example 21-I, 4-(((2S,5R)-5-((R)-(6-cyclopropylpyridin-3-yl)(hydroxy)methyl)pyrrolidin-2-yl)methyl)-N-methyl-N-(pyridin-3-ylmethyl)benzamide]", "values": [
      {"measurement": "pEC50", "result": 7.72},
      {"measurement": "Fold drop in potency vs. 2-chloropyridine analog", "result": 4.4, "unit": "fold"},
      {"measurement": "Human β3-AR Agonist Activity (%)", "result": 71, "unit": "%"}
    ]},
    {"compound": "CN(Cc1cnccn1)C(=O)c1ccc(C[C@@H]2CC[C@H]([C@H](O)c3cncc(F)c3)N2)cc1", "note": "[Example 40-R, 4-(((2S,5R)-5-((R)-(5-fluoropyridin-3-yl)(hydroxy)methyl)pyrrolidin-2-yl)methyl)-N-methyl-N-(pyrazin-2-ylmethyl)benzamide]", "values": [
      {"measurement": "pEC50", "result": 6.43},
      {"measurement": "Fold drop in potency vs. 2-chloropyridine analog", "result": 32.0, "unit": "fold"},
      {"measurement": "Human β3-AR Agonist Activity (%)", "result": 87, "unit": "%"}
    ]},
    {"compound": "CN(Cc1cccc(=O)[nH]1)C(=O)c1ccc(C[C@@H]2CC[C@H]([C@H](O)c3ccc(Cl)nc3)N2)cc1", "note": "[Example 20-A, 4-(((2S,5R)-5-((R)-(6-chloropyridin-3-yl)(hydroxy)methyl)pyrrolidin-2-yl)methyl)-N-methyl-N-((6-oxo-1,6-dihydropyridin-2-yl)methyl)benzamide]", "values": [
      {"measurement": "pEC50", "result": 8.30},
      {"measurement": "Human β3-AR Agonist Activity (%)", "result": 108, "unit": "%"}
    ]},
    {"compound": "COc1ncccc1CN(C)C(=O)c1ccc(C[C@@H]2CC[C@H]([C@H](O)c3ccccc3)N2)cc1", "note": "[Example 25-B, 4-(((2S,5R)-5-((R)-hydroxy(phenyl)methyl)pyrrolidin-2-yl)methyl)-N-((2-methoxypyridin-3-yl)methyl)-N-methylbenzamide]", "values": [
      {"measurement": "pEC50", "result": 6.96},
      {"measurement": "Fold drop in potency vs. 2-chloropyridine analog", "result": 6.0, "unit": "fold"},
      {"measurement": "Human β3-AR Agonist Activity (%)", "result": 96, "unit": "%"}
    ]},
    {"compound": "CN(Cc1cc(C2CC2)[nH]n1)C(=O)c1ccc(C[C@@H]2CC[C@H]([C@H](O)c3ccccc3)N2)cc1", "note": "[Example 8-B, N-((5-cyclopropyl-1H-pyrazol-3-yl)methyl)-4-(((2S,5R)-5-((R)-hydroxy(phenyl)methyl)pyrrolidin-2-yl)methyl)-N-methylbenzamide]", "values": [
      {"measurement": "pEC50", "result": 7.41},
      {"measurement": "Fold drop in potency vs. 2-chloropyridine analog", "result": 2.0, "unit": "fold"},
      {"measurement": "Human β3-AR Agonist Activity (%)", "result": 103, "unit": "%"}
    ]},
    {"compound": "COC(CN(C)C(=O)c1ccc(C[C@@H]2CC[C@H]([C@H](O)c3ccc(Cl)nc3)N2)cc1)c1cccc(=O)[nH]1", "note": "(stereo partly drawn) [Example 3-A, 4-(((2S,5R)-5-((R)-(6-chloropyridin-3-yl)(hydroxy)methyl)pyrrolidin-2-yl)methyl)-N-(2-methoxy-2-(6-oxo-1,6-dihydropyridin-2-yl)ethyl)-N-methylbenzamide]", "values": [
      {"measurement": "pEC50", "result": 6.69},
      {"measurement": "Human β3-AR Agonist Activity (%)", "result": 81, "unit": "%"}
    ]},
    {"compound": "CN(Cc1nc2ccccc2c(=O)n1C)C(=O)c1ccc(C[C@@H]2CC[C@H]([C@H](O)c3ccccc3)N2)cc1", "note": "[Example 45-B, 4-(((2S,5R)-5-((R)-hydroxy(phenyl)methyl)pyrrolidin-2-yl)methyl)-N-methyl-N-((3-methyl-4-oxo-3,4-dihydroquinazolin-2-yl)methyl)benzamide]", "values": [
      {"measurement": "pEC50", "result": 7.19},
      {"measurement": "Fold drop in potency vs. 2-chloropyridine analog", "result": 2.6, "unit": "fold"},
      {"measurement": "Human β3-AR Agonist Activity (%)", "result": 81, "unit": "%"}
    ]},
    {"compound": "COc1ccc(CN(C)C(=O)c2ccc(C[C@@H]3CC[C@H]([C@H](O)c4ccccc4)N3)cc2)cn1", "note": "[Example 29-B, 4-(((2S,5R)-5-((R)-hydroxy(phenyl)methyl)pyrrolidin-2-yl)methyl)-N-((6-methoxypyridin-3-yl)methyl)-N-methylbenzamide]", "values": [
      {"measurement": "pEC50", "result": 7.07},
      {"measurement": "Fold drop in potency vs. 2-chloropyridine analog", "result": 5.1, "unit": "fold"},
      {"measurement": "Human β3-AR Agonist Activity (%)", "result": 99, "unit": "%"}
    ]},
    {"compound": "Cc1nnc(-c2cncc(CN(C)C(=O)c3ccc(C[C@@H]4CC[C@H]([C@H](O)c5ccc(Cl)nc5)N4)cc3)c2)o1", "note": "[Example 36-A, 4-(((2S,5R)-5-((R)-(6-chloropyridin-3-yl)(hydroxy)methyl)pyrrolidin-2-yl)methyl)-N-methyl-N-((5-(5-methyl-1,3,4-oxadiazol-2-yl)pyridin-3-yl)methyl)benzamide]", "values": [
      {"measurement": "pEC50", "result": 7.85},
      {"measurement": "Human β3-AR Agonist Activity (%)", "result": 92, "unit": "%"}
    ]},
    {"compound": "COCc1cc(CN(C)C(=O)c2ccc(C[C@@H]3CC[C@H]([C@H](O)c4ccc(Cl)cc4)N3)cc2)n[nH]1", "note": "[Example 9-G, 4-(((2S,5R)-5-((R)-(4-chlorophenyl)(hydroxy)methyl)pyrrolidin-2-yl)methyl)-N-((5-(methoxymethyl)-1H-pyrazol-3-yl)methyl)-N-methylbenzamide]", "values": [
      {"measurement": "pEC50", "result": 8.40},
      {"measurement": "Fold drop in potency vs. 2-chloropyridine analog", "result": 1.6, "unit": "fold"},
      {"measurement": "Human β3-AR Agonist Activity (%)", "result": 97, "unit": "%"}
    ]},
    {"compound": "CCC(c1cc(C)[nH]n1)N(C)C(=O)c1ccc(C[C@@H]2CC[C@H]([C@H](O)c3cccnc3)N2)cc1", "note": "(stereo partly drawn) [Example 5-H, 4-(((2S,5R)-5-((R)-hydroxy(pyridin-3-yl)methyl)pyrrolidin-2-yl)methyl)-N-methyl-N-(1-(5-methyl-1H-pyrazol-3-yl)propyl)benzamide]", "values": [
      {"measurement": "pEC50", "result": 8.52},
      {"measurement": "Fold drop in potency vs. 2-chloropyridine analog", "result": 1.6, "unit": "fold"},
      {"measurement": "Human β3-AR Agonist Activity (%)", "result": 106, "unit": "%"}
    ]},
    {"compound": "CN(Cc1ccc(=O)[nH]c1)C(=O)c1ccc(C[C@@H]2CC[C@H]([C@H](O)c3ccc(Cl)nc3)N2)cc1", "note": "[Example 28-A, 4-(((2S,5R)-5-((R)-(6-chloropyridin-3-yl)(hydroxy)methyl)pyrrolidin-2-yl)methyl)-N-methyl-N-((6-oxo-1,6-dihydropyridin-3-yl)methyl)benzamide]", "values": [
      {"measurement": "pEC50", "result": 6.76},
      {"measurement": "Human β3-AR Agonist Activity (%)", "result": 87, "unit": "%"}
    ]}
  ]
}
